Results from patent EP0293532A1, “6- or 7-beta-[2-[4-(substituted)-2,3-dioxopiperazin-1-yl) carbonylamino]-(substituted)acetamido]-penicillin and cephalosporin derivatives” (BEECHAM GROUP PLC, priority 1987, dated 1988).
Where a name gives a salt, the structure may show the parent alone.

Legend:
Assay in all cases: MIC by serial dilution in Iso-sensitest agar
Format in all cases: cell-based
P.aerginosa 10662 = settings: 10⁴ colony-forming units, overnight at 37°C, lowest concentration to inhibit growth
Procedure: (§1) Minimum Inhibitory Concentration (MIC) values of compounds of the invention against a variety of organisms were determined by serial dilution in Iso-sensitest agar (from Oxoid Ltd. Basingstoke, England). The plates were inoculated with 10⁴ colony-forming units and incubated overnight at 37°C. The MIC values recorded in Table I were the lowest concentration of antibiotic to inhibit growth. Comparative data for Piperacillin (6β-[D-2-[(4-ethyl-2, 3-dioxopiperazin-1-yl)carbonylamino]-2-phenylacetamido] -penicillanic acid, sodium salt) and for the compound 6α-formamido-6β-[D-2-[(4-ethyl-2, 3-dioxopiperazin-1-yl)carbonylamino]-2- phenyl acetamido]-penicillanic acid, sodium salt (Compound A) disclosed in U.K. Patent GB-2107307B, are also given.

E.Coli JT 425 = settings: Escherichia coli, JT425, 10⁴ colony-forming units, overnight at 37°C, lowest concentration to inhibit growth
Procedure: as §1

E.Coli DC RTEM = settings: Escherichia coli
Procedure: as §1

K.pneumoniae T767 = settings: Klebsiella pneumoniae, 10⁴ colony-forming units, overnight at 37°C, lowest concentration to inhibit growth
Procedure: as §1

S agalactiae 2798 = settings: 10⁴ colony-forming units, overnight at 37°C, lowest concentration to inhibit growth
Procedure: as §1

P.aeruginosa K79961 = settings: Pseudomonas aeruginosa, 10⁴ colony-forming units, overnight at 37°C, lowest concentration to inhibit growth
Procedure: as §1

| SMILES | MIC (P.aerginosa 10662) [µg/mL] | MIC (E.Coli JT 425) [µg/mL] | MIC (E.Coli DC RTEM) [µg/mL] | MIC (K.pneumoniae T767) [µg/mL] | MIC (S agalactiae 2798) [µg/mL] | MIC (P.aeruginosa K79961) [µg/mL] |
| --- | --- | --- | --- | --- | --- | --- |
| CC1(C)S[C@H]2N(C(=O)[C@@]2(NC=O)NC(=O)[C@H](NC(=O)N2CCN(Cc3cc(O)c(O)cn3)C(=O)C2=O)c2ccccc2)[C@H]1C(=O)O [Example 6, Sodium 6β-[D-2-[[4-(4,5-Dihydroxypyridin-2-ylmethyl)-2,3-dioxopiperazin-1-yl]carbonylamino]-2-phenylacetamido]-6α-formamidopenicillanate] | 1 | 0.25 | 0.06 | 0.06 | > 32 | 0.3 |
| CCN1CCN(C(=O)N[C@@H](C(=O)N[C@]2(NC=O)C(=O)N3[C@@H](C(=O)O)C(C)(C)S[C@@H]32)c2ccccc2)C(=O)C1=O [Compound A, 6α-formamido-6β-[D-2-[(4-ethyl-2,3-dioxopiperazin-1-yl)carbonylamino]-2-phenylacetamido]-penicillanic acid, sodium salt, reference compound] | 1 | 0.25 | 0.12 | 0.12 | 64 | 0.12 |
| CC1(C)S[C@H]2N(C(=O)[C@@]2(NC=O)NC(=O)[C@H](NC(=O)N2CCN(Cc3ccc(O)c(O)c3)C(=O)C2=O)c2ccccc2)[C@H]1C(=O)O [Example 2, Sodium 6β-[D-2[[4-(3,4-Dihydroxybenzyl)-2,3-dioxopiperazin-1-yl]carbonylamino]-2-phenylacetamido]-6α-formamidopenicillanate] | 0.12 | < 0.03 | < 0.03 | < 0.03 | 16 | 0.12 |
| CC1(C)S[C@@H]2[C@H](NC(=O)[C@H](NC(=O)N3CCN(Cc4ccc(O)c(O)c4)C(=O)C3=O)c3ccccc3)C(=O)N2[C@H]1C(=O)O [Example 1, Sodium 6β-[D-2[[4-(3,4-Dihydroxybenzyl)-2,3-dioxopiperazin-1-yl]carbonylamino]-2-phenylacetamido]penicillanate] | 0.12 | 1 | 4 | 0.5 | 0.25 | < 0.06 |
| CCN1CCN(C(=O)N[C@@H](C(=O)N[C@@H]2C(=O)N3[C@@H]2SC(C)(C)[C@@H]3C(=O)O)c2ccccc2)C(=O)C1=O [Piperacillin, 6β-[D-2-[(4-ethyl-2,3-dioxopiperazin-1-yl)carbonylamino]-2-phenylacetamido] -penicillanic acid, sodium salt, reference compound] | 8 | 32 | > 128 | 8 | 0.5 | 0.25 |
| CO[C@@]1(NC(=O)[C@H](NC(=O)N2CCN(Cc3ccc(O)c(O)c3)C(=O)C2=O)c2ccccc2)C(=O)N2[C@@H](C(=O)O)C(C)(C)S[C@@H]21 [Example 3, Sodium 6β-[D-2-[[4-(3,4-Dihydroxybenzyl)-2,3-dioxopiperazin-1-yl]carbonylamino]-2-phenylacetamido]-6α-methoxypenicillanate] | 4 | 16 | 2 | 0.25 | > 128 | 1 |
